How the values were obtained:
[1] = method code SF-HPLC, from DOI: 10.1039/p29890001935
[2] = method code SF-AS, from DOI: 10.1002/jps.2600790421, PMID: 2352153
[3] = method code SF-AS, from Kourounakis, P.; Chilliard, N. (1983). Ionization constants and partition coefficients of some 1,1-diphenyl-1-alkoxy-3-dialkylamino-2-propanones with analgesic activity. Pharmazie, 38(6)388-389.; details: pH 7.4
[4] = method code SF-AS, from DOI: 10.1002/chin.199708138, PMID: 8917646; details: pH 7.4
[5] = method code SF-AS, from DOI: 10.3390/molecules16097565, PMID: 21894089
[6] = method code SF-HPLC, from DOI: 10.1016/0378-5173(94)90060-4; details: pH 5.0
[7] = not given; remark: listed apart in the source
[8] = method code SF, from DOI: 10.1016/s0960-894x(04)00268-9, PMID: 15109667; details: pH 7.4
[9] = method code SF-AS, from DOI: 10.1006/pest.1994.1014
[10] = method code SF-HPLC, from DOI: 10.1023/a:1015828802490, PMID: 2308896
[11] = method code SF-RC, from DOI: 10.1021/jm701375u, PMID: 18307287; details: pH 7.4
[12] = method code SF, from DOI: 10.1002/jps.2600830715, PMID: 7965680
[13] = not given; remark: listed apart in the source
[14] = not given; remark: listed apart in the source
[15] = method code SF-HPLC, from DOI: 10.1016/j.jpba.2011.06.023, PMID: 21782368; details: pH 7.4
[16] = method code SF-HPLC, from Thijssen, W. (1981). The relationship between Log P, Rm, log k' and the constants pi and f: a study on penicillins. Eur J Med Chem, 16(5)449-452.
[17] = method code SF-RC, from DOI: 10.1016/j.bmc.2013.10.046, PMID: 24262882; details: pH 7.4
[18] = method code SF-GLC, from DOI: 10.1023/a:1015803202857, PMID: 2395795
[19] = method code SF-HPLC, from PMID: 2780588
[20] = method code SF-AS, from DOI: 10.1007/bf02857814, PMID: 1608986
[21] = method code SF-AS, from DOI: 10.1016/0223-5234(94)90120-1; details: pH 7.4
[22] = not given; remark: listed apart in the source

**Q.** With Fc1ccccc1C1OCC2ON=C(c3ccccc3)C2CO1 (stereo unspecified) as the molecule, how does the logP [1] read?
**A.** The logP was 2.35.

**Q.** For CC(C)[C@H](NC(=O)[C@H](Cc1ccccc1)N(CCCl)N=O)C(=O)NC(=O)NCCCl, which logP [2] is on record?
**A.** The logP was 3.46.

**Q.** For CN(C)CC(=O)C(Oc1ccccc1)(c1ccccc1)c1ccccc1, which logD [3] is on record?
**A.** The logD was 1.57.

**Q.** Which logD [4] does the source give for COC(=O)C1=C(C)NC(C)=C(C(=O)OCCO)C1c1cccc(Cl)c1Cl (stereo unspecified) here?
**A.** The logD was 2.37.

**Q.** With COC(=O)C1=C(C)NC(C)=C(C(=O)OCCOC(=O)C2=CN(C)C=CC2)C1c1cccc(Cl)c1Cl (stereo unspecified) as the molecule, how does the logD [4] read?
**A.** The logD was 2.56.

**Q.** Which logP [5] does the source give for C[C@H](c1nc2ccc(F)cc2s1)N1C(=O)C(=O)N(c2ccc(Cl)cc2)C1=O here?
**A.** Its logP is 0.41.

**Q.** For CCOC(=O)n1c(NC(=O)OC)nc2cc(C(=O)c3ccccc3)ccc21, which logD [6] is on record?
**A.** Its logD is 2.93.

**Q.** With COC(C(=O)N(C)C)(c1ccccc1)c1ccccc1 as the molecule, how does the logD [3] read?
**A.** Its logD is 0.78.

**Q.** Which logP does the source give for CN(C)CCC=C1c2ccccc2CCc2c(Cl)cccc21 here?
**A.** Its logP is 5.55.

**Q.** For CC(=O)[C@H]1CC[C@H]2[C@@H]3CC=C4C[C@@H](O)CC[C@]4(C)[C@H]3CC[C@]12C, which logP [7] is on record?
**A.** The logP was 4.22.

**Q.** With CC(=O)OC(CC#CCS(=O)(=O)c1ccccc1)Cn1ccnc1[N+](=O)[O-] (stereo unspecified) as the molecule, how does the logD [8] read?
**A.** Its logD is 1.35.

**Q.** With Cc1ccccc1C(=O)NN(C(=O)c1ccccc1Cl)C(C)(C)C as the molecule, how does the logP [9] read?
**A.** Its logP is 2.91.

**Q.** For COc1c(C)c2c(c(OC(C)=O)c1C/C=C(\C)CCC(=O)OCC1COC(C)(C)O1)C(=O)OC2 (stereo unspecified), which logD ([10]; pH 7.4) is on record?
**A.** Its logD is 2.87.

**Q.** Which logP [1] does the source give for Clc1ccccc1C1OCC2ON=C(c3ccccc3)C2CO1 (stereo unspecified) here?
**A.** Its logP is 2.92.

**Q.** Which logD [11] does the source give for Brc1cccc(N2CCN(Cc3cc4ccccn4n3)CC2)n1 here?
**A.** Its logD is 1.78.

**Q.** Which logD ([10]; pH 2.0) does the source give for COc1c(C)c2c(c(O)c1C/C=C(\C)CCC(=O)O)C(=O)OC2 here?
**A.** Its logD is 2.76.

**Q.** Which logP [12] does the source give for CC(C)C(NC(=O)N(CCCl)N=O)C(=O)NC1CC(C)(C)N(O)C(C)(C)C1 (stereo unspecified) here?
**A.** The logP was 2.09.

**Q.** Which logP [13] does the source give for CC(C)(O)c1cc(Cl)c(Nc2nc3ccncc3c3c(=O)[nH]ccc23)c(Cl)c1 here?
**A.** The logP was 1.34.

**Q.** Which logP [14] does the source give for O=C1CN=C(c2ccccc2F)c2cc(Cl)ccc2N1CC(F)(F)F here?
**A.** The logP was 3.36.

**Q.** With CCCOC(=O)CC(CNC(=O)OC(C)(C)C)c1ccc(Cl)cc1 (stereo unspecified) as the molecule, how does the logD [15] read?
**A.** The logD was 3.

**Q.** For Cc1onc(-c2ccccc2)c1C(=O)NC1C(=O)N2C1S(=O)C(C)(C)C2C(=O)O (stereo unspecified), which logP [16] is on record?
**A.** The logP was 1.8.

**Q.** For O=C(OCCF)C1C(c2ccc(I)cc2)C2CCC1N2CC=CI (stereo unspecified), which logD [17] is on record?
**A.** The logD was 5.39.

**Q.** Which logP [18] does the source give for OC(CCN1CCCCC1)(c1ccccc1)C1CCCCC1 (stereo unspecified) here?
**A.** Its logP is 4.49.

**Q.** Which logP [19] does the source give for CCCCCCCCNC(=O)Cc1ccc(O)c(OC)c1 here?
**A.** The logP was 2.94.

**Q.** Which logD [11] does the source give for Oc1ccccc1N1CCN(Cc2cnn3ccccc23)CC1 here?
**A.** Its logD is 2.15.

**Q.** With CCn1cc(C(=O)NC(CSSCC(N)C(=O)OC)C(=O)OC)c(=O)c2ccc(C)nc21 (stereo unspecified) as the molecule, how does the logP [20] read?
**A.** The logP was 0.91.

**Q.** With COC(=O)C1C(c2ccc(I)cc2)C2CCC1N2CC=CI (stereo unspecified) as the molecule, how does the logD [17] read?
**A.** Its logD is 5.29.

**Q.** For CC(C)[C@H](NC(=O)[C@H](c1ccccc1)N(CCCl)N=O)C(=O)NC(=O)NCCCl, which logP [2] is on record?
**A.** Its logP is 3.32.

**Q.** For S=C1SCN(Cc2ccccc2)CN1CCc1ccccc1, which logD [21] is on record?
**A.** Its logD is 5.

**Q.** For CCO[C@@H](Cc1ccc(OC/C=C/C#Cc2ccccc2)cc1)C(=O)O, which logP [22] is on record?
**A.** Its logP is 3.87.

**Q.** Which logP [19] does the source give for CCCCCCCCOC(=O)Cc1ccc(O)c(OC)c1 here?
**A.** Its logP is 4.04.
